From patent publication US11001562B2, “Near-infrared fluorescent nerve contrast agents and methods of use thereof” (Beth Israel Deaconess Medical Center, priority 2013, dated 2021)

Legend:
[1] = tested on: pig sciatic nerve tissue cross sections; test: Ex vivo nerve-specific fluorophore screening on nerve tissue sections; details: 100 μM fluorophore, 20 min incubation, pig sciatic nerve sections
Protocol: Phase contrast image (top) and fluorescence image (bottom) of nerve tissue sections incubated with 100 μM of test fluorophores are shown. Nerve-specific fluorescence intensity was determined using staining of pig sciatic nerve cut in cross section. Nerve tissue sections were incubated in 30% FBS solutions without (negative control, autofluorescence only) and with each fluorophore. As a positive control, previously reported nerve-specific BMB was used. Shown are phase contrast image (top) and fluorescence image (bottom) of nerve tissue sections incubated with 100 μM of each fluorophore. The control autofluorescence images were taken with equivalent exposure time and normalization. Arrowheads indicate fluorescence signals in nerve bundles. Ad=adipose tissue. Scale bars=200 μm. The SBR of each nerve relative to the neighboring adipose tissue was quantified and labeled as—, SBR<1; +, SBR=1−2; and ++, SBR >2.
Sciatic nerves from female Yorkshire pigs were harvested, fixed in 2% paraformaldehyde (PFA), and flash frozen in optimal cutting temperature (OCT) compound using liquid nitrogen. Nerve tissues were cut in cross section using a cryostat at […] thickness onto positively charge glass slides. Tissue sections were washed once with phosphate buffered saline (PBS) for 2 min to remove residual OCT. The tissue was then fixed to the slide with 2% PFA for 15 min, followed by washing with PBS (3×5 min). A formulation was previously developed for intravenous (IV) administration and was used in the current study to incubate the fluorophores with the nerve tissue (25). All fluorophores were mixed from the 100 mM stock solution into the IV formulation at 100 µM and incubated with the washed nerve tissue sections at room temperature for 20 min. Additional IV formulation not containing fluorophore was mixed and used to wash each nerve section twice (5 min per wash) following incubation with the formulated fluorophore. The nerve section was then washed an additional 2 times with PBS (5 min per each), after which coverslips were mounted using Fluoromount-G (Southern Biotech, Birmingham, Ala.).
NIR fluorescence microscopy for ex vivo nerve tissue slides was performed on a Nikon Eclipse TE300 microscope system as previously described (12, 19, 25). The microscope was equipped with a 100 W mercury light source, NIR-compatible optics, and a NIR-compatible 10× Plan Fluor objective lens and a 100× Plan Apo oil immersion objective lens (Nikon, Melville, N.Y.). Images were acquired on an Orca-AG (Hamamatsu, Bridgewater, N.J.). Image acquisition and analysis was performed using IPLab software (Scanalytics, Fairfax, Va.). A custom filter set (Chroma Technology Corporation, Brattleboro, Vt.) composed of a 650±22 nm excitation filter, a 675 nm dichroic mirror, and an 710±25 nm emission filter were used to detect Oxazine derivatives and Rhodamine 800 signals in the nerve tissue slides. For BMB, a mercury light source was passed through a 360±25 nm BP excitation filter, a 400 nm LP beam splitter, and a 550±50 nm emission filter.

[2] = tested on: recurrent laryngeal nerve (RLN), brachial plexus (BP) and sciatic nerve (SN) of Yorkshire pigs; test: Nerve targeting in large animals, intraoperative FLARE imaging; format: in vivo, pig; details: iv
Protocol: 20 μmol (0.17 mg/kg) of Oxazine 4 was injected intravenously into 35 kg Yorkshire pigs, and the SBR of nerves to the specified surrounding tissue was measured at different time points (T=0, 15, 30, 60, 120, 180, and 240 min). B) Real-time intraoperative fluorescence images of RLN (top), BP (middle), and SN (bottom) acquired at different time points (T=0, 15, 30, 60, 120, 180, and 240 min). Ad=adipose tissue; Mu=muscle; TEG=tracheoesophageal groove; Th=thyroid; Tr=trachea. Scale bars=1 cm. Fluorescence images have identical exposure times (500 msec) and normalizations. C) Fluorescence microscopic images of cryosectioned RLN, BP, and SN. Samples were obtained after injecting 20 μmol of Oxazine 4 into Yorkshire pigs 4 h prior to resection. Shown are representative images (N=5) of H&E (left) and NIR fluorescence (right) images. Scale bars=[…]. All NIR fluorescence images have identical exposure times and normalizations.
Animals were housed in an AAALAC-certified facility. Animal studies were performed under the supervision of Beth Israel Deaconess Medical Center's Institutional Animal Care and Use Committee (IACUC) in accordance with approved institutional protocols (#101-2011 for rodents and #046-2010 for pigs). […] Following anesthesia, electrocardiogram, heart rate, pulse oximetry, and body temperature were monitored throughout surgery.
Initial in vivo screening occurred in rats based on our previous study of BMB (Supplementary Methods) (25). […] The fluorescence signal in nervous tissues and signal-to-background ratio (SBR) compared to neighboring muscle (Mu) were obtained over the period of imaging. […]
The fluorescence intensity (FI) and background (BG) intensity of a region of interest (ROI) over each nerve/tissue were calculated and quantified using custom FLARE^a software. The FI of the RLN, BP, and SN at the optimal dose and time point were quantified to measure tissue-specific targeting. […]

Which “nerve-specific fluorescence signal in cross-sectioned nerve” value [1] does the source give for CC/N=c1/cc2oc3cc(NCC)c(C)cc3nc-2cc1C [Oxazine 4] here?
Its value is “strong fluorescence signal throughout the cross-sectioned nerve”.

And the “signal retention in BP and SN post injection” value [2]?
Its value is “up to 3 h”.

What about the “time of maximal SBR, BP and SN” value [2] of the same compound?
Its value is 1 h.

And the “time of maximal SBR, RLN” value ([2]; RLN vs surrounding tissue)?
The value was 3 h.
